Test results taken from ChEMBL document CHEMBL1156473, “Crystal structure of human estrogen-related receptor alpha in complex with a synthetic inverse agonist reveals its novel molecular mechanism” (J Biol Chem, 2007).

Tests used:
[1] = target: T1, Steroid hormone receptor ERR1 (Homo sapiens, UniProt P11474); assay: Binding affinity to wild type ERRalpha ligand binding domain by isothermal titration calorimetry
T1 sequence (P11474 whole entry): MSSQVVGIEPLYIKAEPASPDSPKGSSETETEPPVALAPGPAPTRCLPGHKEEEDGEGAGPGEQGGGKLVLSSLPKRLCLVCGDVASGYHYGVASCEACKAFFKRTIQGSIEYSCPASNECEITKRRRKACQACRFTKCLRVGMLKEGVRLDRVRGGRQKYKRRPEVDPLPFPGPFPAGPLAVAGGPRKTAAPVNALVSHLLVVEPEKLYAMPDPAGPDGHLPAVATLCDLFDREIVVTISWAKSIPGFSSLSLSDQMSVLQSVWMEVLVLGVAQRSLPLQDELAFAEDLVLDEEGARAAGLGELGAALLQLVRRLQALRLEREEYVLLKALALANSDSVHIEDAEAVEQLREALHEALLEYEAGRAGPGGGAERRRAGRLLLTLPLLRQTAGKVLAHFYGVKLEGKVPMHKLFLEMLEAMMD

[2] = target: T1, Steroid hormone receptor ERR1; assay: Binding affinity to ERRalpha ligand binding domain by FRET assay
[3] = Binding affinity to ERRalpha C325S mutant ligand binding domain expressed in sf9 cells by isothermal titration calorimetry

Q: For c1ccc(-n2cc(CNCC3CCCCC3)c3ccccc32)cc1, which Kd [1] is on record?
A: 0.77 µM

Q: What about the IC50 [2] of the same compound?
A: 0.7 µM

Q: And the Kd [3]?
A: 0.93 µM
